Drawing on ChEMBL document CHEMBL5223107 (Bioorg Med Chem Lett, 2022), this text covers IC50 for 78 compounds.

The structures appear in SMILES notation.

The first assay deals with CWR22R. The assay can be described thus: Antiproliferative activity against human 22Rv1 cells assessed as cell growth inhibition incubated for 72 hrs by MTT assay. The settings on record: 22Rv1, 72 h. Format: functional, cell-based. In general terms: Formazan colour is commonly taken as a measure of viable cells.
As a reminder, the IC50 is the point on the concentration scale where inhibition reaches its midpoint. Turning to `CNC(=O)c1ccc(N2C(=S)N(c3ccc(C#N)c(C(F)(F)F)c3)C(=O)C2(C)C)cc1F` [ENZALUTAMIDE], the IC50 turned out to be 46.3 µM.

The target of another assay is T1, Androgen receptor (Homo sapiens, UniProt P10275).
T1 sequence (P10275 whole entry): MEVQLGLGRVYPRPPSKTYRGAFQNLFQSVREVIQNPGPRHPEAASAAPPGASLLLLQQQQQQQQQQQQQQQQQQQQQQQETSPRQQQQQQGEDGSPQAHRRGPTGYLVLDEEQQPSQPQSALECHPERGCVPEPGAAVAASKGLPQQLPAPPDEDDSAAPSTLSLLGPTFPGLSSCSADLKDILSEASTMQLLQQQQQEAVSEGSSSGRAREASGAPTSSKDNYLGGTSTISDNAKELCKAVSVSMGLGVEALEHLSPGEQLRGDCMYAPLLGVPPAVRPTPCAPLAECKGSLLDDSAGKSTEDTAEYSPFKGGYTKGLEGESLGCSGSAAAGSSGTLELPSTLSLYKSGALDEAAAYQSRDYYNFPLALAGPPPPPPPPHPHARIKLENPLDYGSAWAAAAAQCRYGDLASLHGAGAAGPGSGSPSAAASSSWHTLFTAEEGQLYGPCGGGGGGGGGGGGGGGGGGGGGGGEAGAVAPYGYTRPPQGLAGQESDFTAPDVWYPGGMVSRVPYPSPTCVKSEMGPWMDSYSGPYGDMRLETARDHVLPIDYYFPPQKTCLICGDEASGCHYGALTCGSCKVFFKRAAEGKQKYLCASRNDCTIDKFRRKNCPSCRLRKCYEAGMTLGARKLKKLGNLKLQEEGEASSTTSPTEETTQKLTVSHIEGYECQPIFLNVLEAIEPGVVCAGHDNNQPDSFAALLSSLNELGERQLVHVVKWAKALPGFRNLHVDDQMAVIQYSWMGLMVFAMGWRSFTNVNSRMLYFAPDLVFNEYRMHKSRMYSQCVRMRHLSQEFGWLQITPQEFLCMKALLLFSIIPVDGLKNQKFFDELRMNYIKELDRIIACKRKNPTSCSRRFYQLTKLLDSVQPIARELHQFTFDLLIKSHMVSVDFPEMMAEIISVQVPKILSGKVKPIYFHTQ
The assay can be described thus: Inhibition of androgen receptor in human LNCaP cells assessed as inhibition of AR transcription activity by dual-luciferase reporter assays. Type of assay: cell-based.
Details: not given
(In general: A reporter such as luciferase makes a cellular process visible.)
`Cc1c(O)c(O)c(C=O)c(COCc2ccccc2)c1-c1cc(C(F)(F)F)cc(C(F)(F)F)c1`: the IC50 was 4.39 µM.

In the case of `Cc1c(O)c(O)c(C=O)c(COCc2ccc(F)cc2)c1-c1ccc(C(F)(F)F)cc1`, the IC50 was 2.14 µM.

In the case of `Cc1c(O)c(O)c(C=O)c(COCc2cccc(F)c2)c1-c1ccc(F)cc1`, the IC50 was 2.58 µM.

On to `Cc1c(C)c(COCc2ccccc2)c(C=O)c(O)c1O`, for which the IC50 is more than 5 µM.

In the case of `COc1ccc(COCc2cc(C)c(O)c(O)c2C=O)cc1`, the IC50 is more than 5 µM.

`Cc1cc(CO[C@H]2CC[C@@]3(C)C(=CC[C@@H]4[C@@H]3CC[C@]3(C)C(=O)CC[C@@H]43)C2)c(C=O)c(O)c1O`: the 50% inhibitory concentration (IC50) was more than 5 µM.

For `Cc1c(O)c(O)c(C=O)c(COCc2ccccc2)c1-c1ccc(Br)cc1`, the half-maximal inhibitory concentration (IC50) came to 3.47 µM.

Take `Cc1ccc(-c2c(C)c(O)c(O)c(C=O)c2COCc2ccccc2)cc1`: the IC50 came out at 3.27 µM.

Take `Cc1c(O)c(O)c(C=O)c(COCc2ccccc2F)c1-c1cccc(F)c1`: the IC50 was more than 5 µM.

As to `Cc1c(O)c(O)c(C=O)c(COCc2ccccc2F)c1-c1ccc(F)cc1`, the IC50 is more than 5 µM.

`Cc1c(O)c(O)c(C=O)c(COCc2ccccc2)c1-c1ccccc1OC(F)(F)F`: the IC50 was more than 5 µM.

With `Cc1c(O)c(O)c(C=O)c(COCc2ccccc2)c1-c1ccc(C(C)(C)C)cc1`, the IC50 came to 3.51 µM.

In the case of `Cc1c(O)c(O)c(C=O)c(COCc2ccccc2)c1-c1ccc(-c2ccccc2)cc1`, the IC50 was more than 5 µM.

Take `Cc1ccccc1-c1c(C)c(O)c(O)c(C=O)c1COCc1ccccc1`: the IC50 is more than 5 µM.

As to `Cc1c(O)c(O)c(C=O)c(COCc2ccccc2)c1-c1ccc(Cl)cc1Br`, the half-inhibitory concentration (IC50) was more than 5 µM.

As for `Cc1ccc(F)cc1-c1c(C)c(O)c(O)c(C=O)c1COCc1ccccc1`, the half-maximal inhibitory concentration (IC50) was more than 5 µM.

For the compound `Cc1c(O)c(O)c(C=O)c(COCc2ccccc2)c1-c1ccc(F)cc1`, the IC50 is more than 5 µM.

As for `Cc1c(O)c(O)c(C=O)c(COCc2ccccc2)c1-c1ccc(F)c(F)c1`, the IC50 amounted to 2.05 µM.

For `CCc1cc(COCc2ccccc2)c(C=O)c(O)c1O`, the IC50 was more than 5 µM.

For `Cc1c(O)c(O)c(C=O)c(COCc2cccc(F)c2)c1-c1cccc(F)c1`, the IC50 was found to be 2.89 µM.

For the compound `Cc1c(O)c(O)c(C=O)c(COCc2cccc(Cl)c2Cl)c1-c1ccccc1`, the IC50 was determined as 2.81 µM.

For `Cc1c(O)c(O)c(C=O)c(COCc2cccc3ccccc23)c1-c1ccccc1`, the concentration for half-maximal inhibition (IC50) is more than 5 µM.

On to `C=CCc1c(C)c(O)c(O)c(C=O)c1COCc1ccc(OC)cc1`, for which the IC50 was more than 5 µM.

As for `Cc1c(O)c(O)c(C=O)c(COCc2ccccc2)c1-c1cccs1`, the IC50 is more than 5 µM.

As for `Cc1cc(COCc2ccccc2)c(C=O)c(O)c1O`, the concentration for half-maximal inhibition (IC50) was more than 5 µM.

Consider `Cc1c(O)c(O)c(C=O)c(COCc2ccccc2)c1-c1ccccc1C#N`, for which the IC50 is more than 5 µM.

Take `Cc1c(O)c(O)c(C=O)c(COCc2ccc(C(F)(F)F)cc2)c1-c1ccccc1`: the IC50 worked out at 3.32 µM.

For the compound `Cc1c(O)c(O)c(C=O)c(COCc2ccccc2)c1-c1cc(F)ccc1F`, the IC50 is more than 5 µM.

Turning to `Cc1c(O)c(O)c(C=O)c(CSCCC(C)C)c1-c1ccccc1`, the IC50 is more than 5 µM.

For `Cc1c(O)c(O)c(C=O)c(COCc2ccccc2C(F)(F)F)c1-c1ccccc1`, the IC50 turned out to be 2.54 µM.

Take `COc1ccccc1COCc1c(C=O)c(O)c(O)c(C)c1-c1ccccc1`: the IC50 was more than 5 µM.

`Cc1cc(C)cc(-c2c(C)c(O)c(O)c(C=O)c2COCc2ccccc2)c1`: the IC50 is more than 5 µM.

Turning to `Cc1c(O)c(O)c(C=O)c(COCc2ccccc2)c1-c1ccc(OC(F)(F)F)cc1`, the IC50 is 4.49 µM.

Consider `Cc1c(O)c(O)c(C=O)c(COCc2ccccc2)c1-c1ccccc1C(F)(F)F`, for which the IC50 was more than 5 µM.

As to `Cc1c(O)c(O)c(C=O)c(COCc2ccccc2F)c1-c1ccccc1`, the IC50 is more than 5 µM.

`CC(C)c1cc(COCc2ccccc2)c(C=O)c(O)c1O`: the IC50 is more than 5 µM.

Take `Cc1c(O)c(O)c(C=O)c(COCc2ccc(F)cc2)c1-c1cccc(F)c1`: the IC50 was determined as 2.09 µM.

With `Cc1c(O)c(O)c(C=O)c2c1C(C#Cc1ccc(Br)cc1)CC2` (stereo not drawn), the IC50 was more than 5 µM.

`Cc1c(O)c(O)c(C=O)c(COCc2ccccc2)c1-c1ccc(C(F)(F)F)cc1Cl`: the half-maximal inhibitory concentration (IC50) stood at 3.25 µM.

With `Cc1c(O)c(O)c(C=O)c(COCc2ccccc2)c1-c1ccc(F)cc1Cl`, the IC50 was more than 5 µM.

Turning to `COc1ccc(-c2c(C)c(O)c(O)c(C=O)c2COCc2ccccc2)cc1`, the concentration for half-maximal inhibition (IC50) is more than 5 µM.

As for `Cc1c(O)c(O)c(C=O)c(CO[C@H]2CC[C@@]3(C)C(=CC[C@@H]4[C@@H]3CC[C@]3(C)C(=O)CC[C@@H]43)C2)c1-c1ccccc1`, the concentration for half-maximal inhibition (IC50) came to 3.22 µM.

As to `CCc1c(O)c(O)c(C=O)c(COCc2ccccc2)c1-c1ccccc1`, the concentration for half-maximal inhibition (IC50) was more than 5 µM.

For `Cc1c(O)c(O)c(C=O)c(COCc2ccc(F)cc2)c1-c1ccccc1`, the IC50 is 2.38 µM.

On to `Cc1cccc(COCc2c(C=O)c(O)c(O)c(C)c2-c2ccccc2)c1`, for which the IC50 came out at 4.53 µM.

On to `Cc1cccc(-c2c(C)c(O)c(O)c(C=O)c2COCc2ccccc2)c1`, for which the IC50 is more than 5 µM.

For the compound `Cc1c(O)c(O)c(C=O)c(COCc2ccccc2)c1-c1ccc(Cl)cc1C(F)(F)F`, the concentration for half-maximal inhibition (IC50) was more than 5 µM.

Turning to `C=CCc1c(C)c(O)c(O)c(C=O)c1COCc1ccccc1`, the IC50 is more than 5 µM.

Consider `Cc1c(O)c(O)c(C=O)c(COCc2cccc(F)c2)c1-c1ccccc1`, for which the IC50 was determined as 4.05 µM.

Take `Cc1c(O)c(O)c(C=O)c(COCc2ccccc2)c1-c1ccccc1`: the IC50 is more than 5 µM.

For the compound `CC(C)=CCC/C(C)=C/COCc1cc(C)c(O)c(O)c1C=O`, the IC50 is more than 5 µM.

For `Cc1c(O)c(O)c(C=O)c(COCc2ccccc2)c1-c1ccc(Cl)cc1`, the 50% inhibitory concentration (IC50) is 4.9 µM.

On to `C#CCOCc1c(C=O)c(O)c(O)c(C)c1-c1ccccc1`, for which the half-inhibitory concentration (IC50) is more than 5 µM.

In the case of `Cc1c(O)c(O)c(C=O)c(COCc2ccccc2)c1-c1cccc(Br)c1F`, the IC50 was more than 5 µM.

In the case of `Cc1c(O)c(O)c(C=O)c(COCc2ccccc2)c1-c1ccc(C(F)(F)F)cc1`, the IC50 was determined as 1.23 µM.

As for `C=C(C)Cc1c(C)c(O)c(O)c(C=O)c1COCc1ccccc1`, the IC50 was more than 5 µM.

Regarding `Cc1c(O)c(O)c(C=O)c(COCc2ccccc2)c1-c1ccc(Br)c(F)c1`, the IC50 came to 2.19 µM.

In the case of `COc1cccc(COCc2c(C=O)c(O)c(O)c(C)c2-c2ccccc2)c1`, the 50% inhibitory concentration (IC50) is more than 5 µM.

For the compound `Cc1c(O)c(O)c(C=O)c(COCc2cccc(F)c2)c1-c1ccc(C(F)(F)F)cc1`, the IC50 was determined as 2.09 µM.

Consider `Cc1c(O)c(O)c(C=O)c(COCc2ccc(F)cc2)c1-c1ccc(F)cc1`, for which the IC50 turned out to be 2.41 µM.

As for `Cc1c(O)c(O)c(C=O)c(COCc2ccc(OC(F)(F)F)cc2)c1-c1ccccc1`, the IC50 worked out at 2.72 µM.

For the compound `Cc1c(O)c(O)c(C=O)c(COCc2ccccc2)c1-c1ccc(Br)cc1F`, the half-inhibitory concentration (IC50) came to 3.39 µM.

Turning to `Cc1c(O)c(O)c(C=O)c(COCc2ccccc2)c1-c1ccc([N+](=O)[O-])cc1`, the IC50 is 3.74 µM.

Take `Cc1c(O)c(O)c(C=O)c(COCc2ccccc2C(F)(F)F)c1-c1cccc(F)c1`: the IC50 was more than 5 µM.

With `Cc1c(O)c(O)c(C=O)c(COCc2cccc(C(F)(F)F)c2)c1-c1ccccc1`, the IC50 is 3.05 µM.

Turning to `Cc1c(O)c(O)c(C=O)c(COCc2ccccc2)c1CO[Si](C)(C)C`, the half-inhibitory concentration (IC50) was more than 5 µM.

With `Cc1c(O)c(O)c(C=O)c(COCc2ccccc2)c1-c1ccc(F)cc1F`, the IC50 was 2.3 µM.

As to `COC(=O)c1ccc(-c2c(C)c(O)c(O)c(C=O)c2COCc2ccccc2)cc1`, the IC50 is 4.23 µM.

As for `COc1ccccc1-c1c(C)c(O)c(O)c(C=O)c1COCc1ccccc1`, the IC50 was more than 5 µM.

As for `Cc1c(O)c(O)c(C=O)c(COCc2ccccc2)c1-c1cccc2ccccc12`, the IC50 is more than 5 µM.

As for `Cc1c(O)c(O)c(C=O)c2c1[C@@H](c1ccc(C(=O)O[C@H]3CC[C@@]4(C)C(=CC[C@H]5[C@@H]6CC[C@H]([C@H](C)CCCC(C)C)[C@@]6(C)CC[C@@H]54)C3)cc1)CC2`, the IC50 was more than 5 µM.

On to `Cc1c(O)c(O)c(C=O)c(COCc2ccccc2)c1-c1ccccc1Cl`, for which the IC50 is more than 5 µM.

As to `Cc1c(O)c(O)c(C=O)c2c1C1(CC2)c2ccccc2-c2ccccc21`, the IC50 is more than 5 µM.

On to `Cc1c(O)c(O)c(C=O)c(COCc2ccccc2)c1-c1ccccc1Br`, for which the IC50 was more than 5 µM.

In the case of `Cc1c(O)c(O)c(C=O)c(COCc2ccccc2)c1-c1ccc(C(F)(F)F)cc1Br`, the IC50 is 4.08 µM.

Take `Cc1ccc(COCc2c(C=O)c(O)c(O)c(C)c2-c2ccccc2)cc1`: the IC50 is more than 5 µM.

For the compound `Cc1c(O)c(O)c(C=O)c(COCc2ccccc2F)c1-c1ccc(C(F)(F)F)cc1`, the IC50 came out at 2.52 µM.
